Assay results from the supplement of paper PMC4862054.
Each block holds one compound with its values, some of them ahead of it.

Columns and labels:
MFM-223 [1] = conditions: 72 h
Summary of the method: (§1)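 Breast cancer cell lines in 20 µl suspension were seeded onto 384-well plates pre-loaded with compound dissolved in 5 µl medium, then incubated 72 h. For viability, 2.5 µl CellTiter-Blue was added for 2 h at 37 °C and fluorescence read at 560/590 nm. Each plate was normalised to vehicle and a positive kill control and checked by Z'-factor. EC50 comes from the fitted percent-inhibition dose-response curve, censored at the highest concentration; rows with zero drug sensitivity score were dropped.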

BT-474 [2] = conditions: 72 h
Summary of the method: as §1

MDA-MB-468 = conditions: 72 h
Summary of the method: as §1

MDA-MB-231 [3] = conditions: 72 h
Summary of the method: as §1

HDQ-P1 [4] = conditions: 72 h
Summary of the method: as §1

MDA-MB-453 [5] = conditions: 72 h
Summary of the method: as §1

DU-4475 [6] = conditions: 72 h
Summary of the method: as §1

CAL-85-1 [7] = conditions: 72 h
Summary of the method: as §1

MFM-223 [8] = assay: normalised viability (% of control), CellTiter-Blue; higher = more viable cells (about 100 = DMSO control); conditions: 100 nM; incubation time: 72 h
Summary of the method: (§2)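 Normalised viability is given for a single listed concentration of the series. In 384-well plates, breast cancer cell lines were incubated 72 h with compound, then read with CellTiter-Blue (2 h, 37 °C) at 560/590 nm. Per-plate scaling set vehicle to 100 and a positive kill control to 0, with Z'-factor quality control.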

SK-BR-3 [9] = assay: as above; conditions: 100 nM; incubation time: 72 h
Summary of the method: as §2

MDA-MB-436 [10] = assay: as above; conditions: 100 nM; incubation time: 72 h
Summary of the method: as §2

Hs578T [11] = assay: as above; conditions: 100 nM; incubation time: 72 h
Summary of the method: as §2

BT-549 [12] = assay: as above; conditions: 100 nM; incubation time: 72 h
Summary of the method: as §2

Hs578T [13] = conditions: 72 h
Summary of the method: as §1

SK-BR-3 [14] = conditions: 72 h
Summary of the method: (§3)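 Seeding of breast cancer cell lines (20 µl suspension) was done into 384-well plates pre-loaded with compound at 5 concentrations, 10-fold apart, covering a compound-specific 10,000-fold range. The plates were incubated for 72 h, read for CellTox Green fluorescence (485/520 nm), and then read for CellTiter-Glo luminescence after 10 min at room temperature. Every plate was normalised to 0.1 % DMSO and a positive kill control. Curve fitting gave the EC50, censored at the top concentration.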

CAL-148 = conditions: 72 h
Summary of the method: as §3

HDQ-P1 [15] = conditions: 72 h; remark: listed apart in the source
Summary of the method: as §3

MDA-MB-453 [16] = conditions: 72 h; remark: listed apart in the source
Summary of the method: as §3

CAL-85-1 [17] = conditions: 72 h; remark: listed apart in the source
Summary of the method: as §3

BT-549 [18] = conditions: 72 h
Summary of the method: as §3

MCF-10A [19] = conditions: 72 h
Summary of the method: as §3

CAL-85-1 [20] = conditions: 72 h; remark: listed apart in the source
Method: (§4)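 Drug sensitivity and resistance testing (DSRT) of breast cancer cell lines in 384-well plates, 5 concentrations in 10-fold dilutions over a compound-specific 10,000-fold range. After 72 h, cytotoxicity was read by CellTox Green fluorescence and viability by CellTiter-Glo luminescence (multiplexed), normalised to DMSO and benzethonium chloride controls. EC50 is the inflection point of the fitted dose-response curve (bottom asymptote free, so it can be relative for partial curves) and is censored at the highest tested concentration. Rows with DSS 0 (no meaningful response) were excluded.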

HCC1143 [21] = conditions: 72 h
Summary of the method: as §1

HCC1599 [22] = conditions: 72 h
Summary of the method: as §1

MFM-223 [23] = conditions: 72 h; remark: listed apart in the source
Summary of the method: as §3

HCC1937 = conditions: 72 h
Summary of the method: as §3

BT-474 [24] = conditions: 72 h; remark: listed apart in the source
Summary of the method: as §3

CAL-51 [25] = conditions: 72 h
Summary of the method: as §3

HCC1143 [26] = conditions: 72 h; remark: listed apart in the source
Summary of the method: as §3

HCC1599 [27] = conditions: 72 h; remark: listed apart in the source
Summary of the method: as §3

MDA-MB-436 [28] = conditions: 72 h
Summary of the method: as §3

DU-4475 [29] = conditions: 72 h; remark: listed apart in the source
Summary of the method: as §3

MDA-MB-231 [30] = conditions: 72 h; remark: listed apart in the source
Summary of the method: as §3

Hs578T [31] = conditions: 72 h; remark: listed apart in the source
Summary of the method: as §3

MFM-223 [32] = conditions: 72 h; remark: listed apart in the source
Method: as §4

BT-474 [33] = conditions: 72 h; remark: listed apart in the source
Method: as §4

CAL-51 [34] = conditions: 72 h; remark: listed apart in the source
Method: as §4

HDQ-P1 [35] = conditions: 72 h; remark: listed apart in the source
Method: as §4

MDA-MB-231 [36] = conditions: 72 h; remark: listed apart in the source
Method: as §4

Hs578T [37] = conditions: 72 h; remark: listed apart in the source
Method: as §4

BT-549 [38] = conditions: 72 h; remark: listed apart in the source
Method: as §4

MCF-10A [39] = conditions: 72 h; remark: listed apart in the source
Method: as §4

EC50, CellTiter-Blue viability (BT-474 [2]): 4450 nM
EC50, CellTiter-Blue viability (MDA-MB-468): 3040 nM
EC50, CellTiter-Blue viability (MDA-MB-231 [3]): 2060 nM
EC50, CellTiter-Blue viability (MDA-MB-453 [5]): 3640 nM
Structure (SMILES): CN1CCC(COc2cnc(-c3cccc(Cn4nc(-c5cccc(C#N)c5)ccc4=O)c3)nc2)CC1
EC50, CellTiter-Blue viability (MFM-223 [1]): 6.27 µM
EC50, CellTiter-Blue viability (HDQ-P1 [4]): 4970 nM
EC50, CellTiter-Blue viability (DU-4475 [6]): 5.89 µM
EC50, CellTiter-Blue viability (CAL-85-1 [7]): 5150 nM
normalised viability (MFM-223 [8]): 96.9%
normalised viability (SK-BR-3 [9]): 68.9%
normalised viability (MDA-MB-436 [10]): 92.3%
normalised viability (Hs578T [11]): 76.3%
normalised viability (BT-549 [12]): 81.5%

EC50, CellTiter-Blue viability (BT-474 [2]): 20.9 nM
EC50, CellTiter-Blue viability (MDA-MB-468): 1160 nM
EC50, CellTiter-Blue viability (MDA-MB-231 [3]): 2010 nM
EC50, CellTiter-Glo (SK-BR-3 [14]): 10.7 nM
EC50, CellTiter-Glo (MDA-MB-453 [16]): 54.7 nM
EC50, CellTiter-Glo (BT-549 [18]): > 1000 nM
EC50, CellTiter-Blue viability (MDA-MB-453 [5]): 45.7 nM
Structure (SMILES): CN(C)C/C=C/C(=O)Nc1cc2c(Nc3ccc(F)c(Cl)c3)ncnc2cc1O[C@H]1CCOC1 [Afatinib]
EC50, CellTiter-Blue viability (MFM-223 [1]): 3.74 µM
EC50, CellTiter-Blue viability (Hs578T [13]): 4260 nM
EC50, CellTiter-Glo (CAL-148): 24.1 nM
EC50, CellTiter-Glo (HDQ-P1 [15]): 9.48 nM
EC50, CellTiter-Glo (CAL-85-1 [17]): 35.2 nM
EC50, CellTiter-Glo (MCF-10A [19]): 6.58 nM
EC50, CellTiter-Blue viability (HDQ-P1 [4]): 398 nM
EC50, CellTiter-Blue viability (CAL-85-1 [7]): 147 nM
normalised viability (MFM-223 [8]): 84.8%
normalised viability (SK-BR-3 [9]): 15.2%
normalised viability (MDA-MB-436 [10]): 84.7%
normalised viability (Hs578T [11]): 84.2%
normalised viability (BT-549 [12]): 104%
EC50, CellTox Green (CAL-85-1 [20]): 19.7 nM

EC50, CellTiter-Blue viability (BT-474 [2]): 278 nM
EC50, CellTiter-Blue viability (MDA-MB-468): 278 nM
EC50, CellTiter-Blue viability (HCC1143 [21]): 127 nM
EC50, CellTiter-Blue viability (HCC1599 [22]): 165 nM
EC50, CellTiter-Blue viability (MDA-MB-231 [3]): 190 nM
EC50, CellTiter-Glo (HCC1937): 357 nM
EC50, CellTiter-Glo (BT-474 [24]): 183 nM
EC50, CellTiter-Glo (SK-BR-3 [14]): 218 nM
EC50, CellTiter-Glo (HCC1143 [26]): 359 nM
EC50, CellTiter-Glo (HCC1599 [27]): 417 nM
EC50, CellTiter-Glo (MDA-MB-436 [28]): 143 nM
EC50, CellTiter-Glo (MDA-MB-453 [16]): 548 nM
EC50, CellTiter-Glo (MDA-MB-231 [30]): 242 nM
EC50, CellTiter-Glo (BT-549 [18]): 294 nM
EC50, CellTiter-Blue viability (MDA-MB-453 [5]): 165 nM
Structure (SMILES): CN1CC[C@H](c2c(O)cc(O)c3c(=O)cc(-c4ccccc4Cl)oc23)[C@H](O)C1 [Alvocidib]
EC50, CellTiter-Blue viability (MFM-223 [1]): 0.174 µM
EC50, CellTiter-Blue viability (Hs578T [13]): 93.6 nM
EC50, CellTiter-Glo (MFM-223 [23]): 335 nM
EC50, CellTiter-Glo (CAL-51 [25]): 167 nM
EC50, CellTiter-Glo (CAL-148): 243 nM
EC50, CellTiter-Glo (HDQ-P1 [15]): 183 nM
EC50, CellTiter-Glo (DU-4475 [29]): 282 nM
EC50, CellTiter-Glo (CAL-85-1 [17]): 372 nM
EC50, CellTiter-Glo (Hs578T [31]): 376 nM
EC50, CellTiter-Glo (MCF-10A [19]): 368 nM
EC50, CellTiter-Blue viability (HDQ-P1 [4]): 163 nM
EC50, CellTiter-Blue viability (DU-4475 [6]): 0.141 µM
EC50, CellTiter-Blue viability (CAL-85-1 [7]): 153 nM
normalised viability (MFM-223 [8]): 76.3%
normalised viability (SK-BR-3 [9]): 46.9%
normalised viability (MDA-MB-436 [10]): 99.7%
normalised viability (Hs578T [11]): 51.5%
normalised viability (BT-549 [12]): 95.6%
EC50, CellTox Green (MFM-223 [32]): 558 nM
EC50, CellTox Green (BT-474 [33]): > 10 µM
EC50, CellTox Green (CAL-51 [34]): 806 nM
EC50, CellTox Green (HDQ-P1 [35]): 167 nM
EC50, CellTox Green (CAL-85-1 [20]): 473 nM
EC50, CellTox Green (MDA-MB-231 [36]): 135 nM
EC50, CellTox Green (Hs578T [37]): 1790 nM
EC50, CellTox Green (BT-549 [38]): 1010 nM
EC50, CellTox Green (MCF-10A [39]): 420 nM
